In US20090111743A1, “Cysteine-branched heparin-binding growth factor analogs” (BioSurface Engineering Technologies, Inc., priority 2005, published 2009):
Where no end group is shown, it is not given here. Side-chain parts run from the residue outwards. CX1X1X1RKRLDRIAR‑NH2 = not defined here; bMB = bis-maleimidobutane

What was measured:
Format in all cases: cell-based
[1] = system: C3H10T1/2 mouse pluripotent stem cells; assay: Cell growth study, MTS relative cell number, C3H10T1/2 cells; conditions: for % OF CONTROL VALUE / MEAN ABSORBANCE: 3 days in culture, MTS
Description: (§1) The synthetic branched peptide construct of Example 4 was tested in cell growth studies, to determine the ability of the synthetic branched peptide construct to stimulate cell growth. Cell growth was monitored using a commercially available kit (Promega Corporation, Madison, Wis.) based on a tetrazolium compound (3-(4,5-dimethylthiazol-2-yl)-5-(3-carboxymethoxyphenyl)-2-(4-sulfophenyl)-2H-tetrazolium, inner salt (MTS). Aliquots of 10^3 cells were seeded into wells of 96-well plates and allowed to attach. The medium was then replaced with a low serum medium containing between 0 and 10 μg/mL of the synthetic branched peptide construct of Example 4. After 3 days in culture, the relative cell number was monitored using MTS following the directions of the manufacturer. Statistical significance was determined using ANOVA followed by post-hoc multiple comparisons versus control group (Dunnett's Method).
(§2) MC3T3E1 osteoblastic cells, C3H10T1/2 mouse pluripotent stem cells, C2C12 murine myoblasts, and cells from a human fetal osteoblast cell line (hFOB) were obtained from the American Type Culture Collection (Manassas, Va.) and were maintained in DMEM:F12 medium containing newborn calf serum and antibiotics. MC3T3E1, C3H10T1/2, and hFOB cells were positive for growth induction by synthetic branched peptide construct of […] as shown in Table 3 below. The effective concentration was between 1 and 10 μg/mL. C2C12 was negative for growth using the synthetic branched peptide construct of Example 4.

[2] = system: MC3T3E1 osteoblastic cells; assay: Cell growth study, MTS relative cell number, MC3T3E1 cells; conditions: for % OF CONTROL VALUE / MEAN ABSORBANCE: 3 days in culture, MTS
Description: as §1, §2

C2C12 murine myoblasts = assay: Cell growth study, MTS relative cell number, C2C12 cells; conditions: for % OF CONTROL VALUE / MEAN ABSORBANCE: 3 days in culture, MTS
Description: as §1, §2

[3] = system: human fetal osteoblast cell line (hFOB); assay: Cell growth study, MTS relative cell number, hFOB cells; conditions: for % OF CONTROL VALUE / MEAN ABSORBANCE: hFOB, 3 days in culture, MTS
Description: as §1, §2

For “NH2-LYVDFSDVGWNDWC(bMB-CX1X1X1RKRLDRIAR-amide)-AISMLYLDENEKVVL-amide (chain 1 H-LYVDFSDVGWNDWC([bMB-CX1X1X1RKRLDRIAR‑NH2]); chain 2 AISMLYLDENEKVVL-NH2; reading uncertain; also: chains 1 and 2 form one continuous backbone (C14 of chain 1 peptide-bonded to A1 of chain 2), printed as NH2-LYVDFSDVGWNDWC(bMB-CX1X1X1RKRLDRIAR-amide)-AISMLYLDENEKVVL-amide) [Example 4, heterodimeric BMP-2 analog branched via cysteine and 1,4-bis-maleimidobutane; X1 is 6-aminohexanoic acid]”, the “% OF CONTROL VALUE” ([1]; C3H10T1/2, 0.5 μg/mL) was 147%, the “MEAN ABSORBANCE” value ([1]; C3H10T1/2, 0.5 μg/mL) was 0.41 and the “% OF CONTROL VALUE” ([1]; C3H10T1/2, 1 μg/mL) was 152%. The “MEAN ABSORBANCE” value ([1]; C3H10T1/2, 1 μg/mL) was 0.42, the “% OF CONTROL VALUE” ([1]; C3H10T1/2, 2 μg/mL) was 158% and the “MEAN ABSORBANCE” value ([1]; C3H10T1/2, 2 μg/mL) was 0.44. For the same substance, the “% OF CONTROL VALUE” ([1]; C3H10T1/2, 5 μg/mL) was 156%, the “MEAN ABSORBANCE” value ([1]; C3H10T1/2, 5 μg/mL) was 0.43 and the “% OF CONTROL VALUE” ([1]; C3H10T1/2, 10 μg/mL) was 144%. The “MEAN ABSORBANCE” value ([1]; C3H10T1/2, 10 μg/mL) was 0.40, the growth induction ([1]; C3H10T1/2 cells, 0 to 10 μg/mL, 3 days) was “positive” and the “% OF CONTROL VALUE” ([2]; MC3T3E1, 0.5 μg/mL) was 103%. For the same substance, the “MEAN ABSORBANCE” value ([2]; MC3T3E1, 0.5 μg/mL) was 0.74, the “% OF CONTROL VALUE” ([2]; MC3T3E1, 1 μg/mL) was 99% and the “MEAN ABSORBANCE” value ([2]; MC3T3E1, 1 μg/mL) was 0.71. For the same substance, the “% OF CONTROL VALUE” ([2]; MC3T3E1, 2 μg/mL) was 138%, the “MEAN ABSORBANCE” value ([2]; MC3T3E1, 2 μg/mL) was 0.99 and the “% OF CONTROL VALUE” ([2]; MC3T3E1, 5 μg/mL) was 133%. For the same substance, the “MEAN ABSORBANCE” value ([2]; MC3T3E1, 5 μg/mL) was 0.96, the “% OF CONTROL VALUE” ([2]; MC3T3E1, 10 μg/mL) was 134% and the “MEAN ABSORBANCE” value ([2]; MC3T3E1, 10 μg/mL) was 0.96. The growth induction ([2]; MC3T3E1 cells, 0 to 10 μg/mL, 3 days) was “positive”, the “% OF CONTROL VALUE” (C2C12 murine myoblasts; C2C12, 0.5 μg/mL) was 99% and the “MEAN ABSORBANCE” value (C2C12 murine myoblasts; C2C12, 0.5 μg/mL) was 0.30. For the same substance, the “% OF CONTROL VALUE” (C2C12 murine myoblasts; C2C12, 1 μg/mL) was 101%, the “MEAN ABSORBANCE” value (C2C12 murine myoblasts; C2C12, 1 μg/mL) was 0.30 and the “% OF CONTROL VALUE” (C2C12 murine myoblasts; C2C12, 2 μg/mL) was 99%. The “MEAN ABSORBANCE” value (C2C12 murine myoblasts; C2C12, 2 μg/mL) was 0.30, the “% OF CONTROL VALUE” (C2C12 murine myoblasts; C2C12, 5 μg/mL) was 99% and the “MEAN ABSORBANCE” value (C2C12 murine myoblasts; C2C12, 5 μg/mL) was 0.30. For the same substance, the “% OF CONTROL VALUE” (C2C12 murine myoblasts; C2C12, 10 μg/mL) was 90%, the “MEAN ABSORBANCE” value (C2C12 murine myoblasts; C2C12, 10 μg/mL) was 0.27 and the growth induction (C2C12 murine myoblasts; C2C12 cells, 0 to 10 μg/mL, 3 days) was “negative”. For the same substance, the growth induction ([3]; hFOB cells, 0 to 10 μg/mL, 3 days) was “positive”, the “% OF CONTROL VALUE” ([3]; 0.5 μg/mL) was 121% and the “MEAN ABSORBANCE” value ([3]; 0.5 μg/mL) was 0.58. For the same substance, the “% OF CONTROL VALUE” ([3]; 1 μg/mL) was 131%, the “MEAN ABSORBANCE” value ([3]; 1 μg/mL) was 0.62 and the “% OF CONTROL VALUE” ([3]; 2 μg/mL) was 135%. For the same substance, the “MEAN ABSORBANCE” value ([3]; 2 μg/mL) was 0.64, the “% OF CONTROL VALUE” ([3]; 5 μg/mL) was 127% and the “MEAN ABSORBANCE” value ([3]; 5 μg/mL) was 0.60. For the same substance, the “% OF CONTROL VALUE” ([3]; 10 μg/mL) was 130% and the “MEAN ABSORBANCE” value ([3]; 10 μg/mL) was 0.62.
